Laboratory results as given in US20050065206A1, “Skin preparation comprising a tocopherol derivative for external application” (priority 2001, published 2005).

Experiments:
[1] = test system: skin removed from the back of a hairless mouse; assay: Evaluation of skin penetrability, amount of γ-tocopherol in the skin; assay type: in vitro ADME; settings: 4 hours at 37° C.; for amount of γ-tocopherol in the skin: 0.50 (mass %) in Dulbecco's MEM medium, HPLC, not added: 10
[2] = test system: skin removed from the back of a hairless mouse; assay: Evaluation of skin penetrability, amount of α-tocopherol in the skin; assay type: in vitro ADME; settings: 4 hours at 37° C.; for amount of α-tocopherol in the skin: 0.50 (mass %) in Dulbecco's MEM medium, HPLC, not added: 10
[3] = test system: keratinocytes of normal human epidermis; settings: final concentration 1 mM, 37° C. for 2 hours; not added: lower than detection limit
Experimental: The cells were harvested and spalled by freeze-thawing method. To this cell spall solution, 1), 2) or 3) was added to have a final concentration of 1 mM. The resulting solution was kept at 37° C. for 2 hours and then the amount of α-tocopherol liberated in the reaction solution was measured.

Row | Structure (SMILES) | amount of γ-tocopherol in the skin [1] | amount of α-tocopherol in the skin [2] | change of the α-tocopherol amount in the treated skin ([2]; 0.50 in medium) | amount of α-tocopherol liberated in the reaction solution [3] | change of the γ-tocopherol amount in the treated skin ([1]; 0.50 in medium)
1 | CC(=O)Oc1cc2c(c(C)c1C)OC(C)(CCCC(C)CCCC(C)CCCC(C)C)CC2 (stereo not shown) [γ-Tocopherol acetate, reference compound] | 11 nmol/g of skin | – | – | – | –
2 | Cc1c(C)c2c(c(C)c1OC(=O)CN)CCC(C)(CCCC(C)CCCC(C)CCCC(C)C)O2.Cl (stereo not shown) | – | 24 nmol/g of skin | significant increase | – | –
3 | CC(=O)Oc1c(C)c(C)c2c(c1C)CCC(C)(CCC[C@H](C)CCC[C@H](C)CCCC(C)C)O2 (stereo partly drawn) [α-Tocopherol acetate, reference compound] | – | 11 nmol/g of skin | – | 0.5 nmol/ml of cell suspension | –
4 | Cc1c(OC(=O)CN)cc2c(c1C)OC(C)(CCCC(C)CCCC(C)CCCC(C)C)CC2.Cl (stereo not shown) | 24 nmol/g of skin | – | – | – | significant increase
